ChEMBL document CHEMBL1201862, “PubChem BioAssay data set” (2004)
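48-hour exposure; five concentrations; linearly interpolated endpoints. The concentration for 50% growth inhibition is given as GI50.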 Activity calls are given as the source filed them. Cut-off read from the data, not from the text of the source: active = GI50 up to about 1.1 µM and inactive = higher. *1 amine or outer side, *2 acyl side, *3 side chain or, on linkers, in order; H or OH if unused. Where a SMILES comes first, the peptide text is derived from it. Bridges are numbered along the chain shown (N, C = ends). [ ]: non-standard residue; d: D form. X36 = CC[C@H](C)[C@@H](N[*:1])[C@@H](O)CC(=O)O[C@H](C(=O)[C@H](C)C(=O)[*:2])C(C)C; NMeY = CN[C@@H](Cc1ccc(O)cc1)C(=O)O

How the values were obtained:
Test in all cases: NCI anticancer screen, dose series, 48 h
[1] = system: BT-549
[2] = system: KM12
[3] = system: SK-MEL-2
[4] = system: NCI/ADR-RES
[5] = system: MOLT-4
[6] = system: HOP-62
[7] = system: SK-MEL-5
[8] = system: HCC 2998
[9] = system: SNB-19
[10] = system: UACC-257
[11] = system: RXF 393
[12] = system: OVCAR-4
[13] = system: SW-620
[14] = system: MDA-MB-231
[15] = system: HCT-116
[16] = system: M14
[17] = system: A549
[18] = system: SF-268
[19] = system: SR
[20] = system: NCI-H522

Structure (SMILES)	GI50 [1]	GI50 [2]	GI50 [3]	GI50 [4]	GI50 [5]	GI50 [6]	GI50 [7]	GI50 [8]	GI50 [9]	GI50 [10]	GI50 [11]	GI50 [12]	GI50 [13]	GI50 [14]	GI50 [15]	GI50 [16]	GI50 [17]	GI50 [18]	GI50 [19]	GI50 [20]
CN1C(=O)N/C(=C\c2ccc(S(=O)(=O)NN)cc2)C1=O	> 100 µM (inactive)	> 100 µM (inactive)	> 100 µM (inactive)	> 100 µM (inactive)	> 100 µM (inactive)	> 100 µM (inactive)	> 100 µM (inactive)	> 100 µM (inactive)	> 100 µM (inactive)	> 100 µM (inactive)	> 100 µM (inactive)	> 100 µM (inactive)	> 100 µM (inactive)	> 100 µM (inactive)	> 100 µM (inactive)	> 100 µM (inactive)	> 100 µM (inactive)	> 100 µM (inactive)	–	–
CC[C@H](C)[C@H]1NC(=O)[C@@H](N)[C@@H](C)OC(=O)[C@H](Cc2ccc(OC)cc2)N(C)C(=O)[C@@H]2CCCN2C(=O)[C@H](CC(C)C)NC(=O)[C@@H](C)C(=O)[C@H](C(C)C)OC(=O)C[C@@H]1O (H-T[X36]LP[NMeY](Me); ester 1-C)	20.2 µM (inactive)	9.35 µM (inactive)	46 µM (inactive)	> 100 µM (inactive)	6.85 µM (inactive)	14.7 µM (inactive)	12.9 µM (inactive)	54.1 µM (inactive)	28.7 µM (inactive)	15.6 µM (inactive)	8.13 µM (inactive)	54.5 µM (inactive)	19.5 µM (inactive)	–	–	4.84 µM (inactive)	19.3 µM (inactive)	49.5 µM (inactive)	16.3 µM (inactive)	10.5 µM (inactive)
CSc1nc(SC)c2ncn(C3CC(Oc4ccc(C)cc4)C(COc4ccc(C)cc4)O3)c2n1 (centres undefined)	> 100 µM (inactive)	> 100 µM (inactive)	> 100 µM (inactive)	> 100 µM (inactive)	–	> 100 µM (inactive)	> 100 µM (inactive)	> 100 µM (inactive)	> 100 µM (inactive)	> 100 µM (inactive)	–	> 100 µM (inactive)	> 100 µM (inactive)	> 100 µM (inactive)	> 100 µM (inactive)	> 100 µM (inactive)	> 100 µM (inactive)	> 100 µM (inactive)	–	> 100 µM (inactive)
C=C(CC(NC(=O)c1ccc(C(CC)Cc2cnc3nc(N)nc(N)c3n2)cc1)C(=O)O)C(=O)O (centres undefined)	0.0687 µM (active)	–	0.933 µM (active)	–	0.0136 µM (active)	0.03 µM (active)	0.0857 µM (active)	0.239 µM (active)	–	0.839 µM (active)	0.237 µM (active)	0.246 µM (active)	0.0673 µM (active)	0.0736 µM (active)	0.00286 µM (active)	0.02 µM (active)	0.00567 µM (active)	0.0731 µM (active)	0.00316 µM (active)	–
O=c1[nH]nc(Cc2ccccc2)n1N=C1CCCCC1	> 100 µM (inactive)	> 100 µM (inactive)	> 100 µM (inactive)	> 100 µM (inactive)	> 100 µM (inactive)	> 100 µM (inactive)	> 100 µM (inactive)	–	> 100 µM (inactive)	> 100 µM (inactive)	> 100 µM (inactive)	> 100 µM (inactive)	> 100 µM (inactive)	> 100 µM (inactive)	> 100 µM (inactive)	> 100 µM (inactive)	> 100 µM (inactive)	> 100 µM (inactive)	–	> 100 µM (inactive)
Clc1ccccc1/C=c1\nc(-c2ccccc2)n2c1nc1ccccc12	18.2 µM (inactive)	> 100 µM (inactive)	45.3 µM (inactive)	40.9 µM (inactive)	> 100 µM (inactive)	20.8 µM (inactive)	> 100 µM (inactive)	–	40.3 µM (inactive)	> 100 µM (inactive)	18.2 µM (inactive)	> 100 µM (inactive)	> 100 µM (inactive)	22.8 µM (inactive)	35.4 µM (inactive)	> 100 µM (inactive)	> 100 µM (inactive)	19.8 µM (inactive)	–	–
